Assay [1] has as its system Blumeria graminis f.sp. hordei. Briefly: Blumeria test (barley) / preventive. The class given is in vivo, Blumeria graminis f.sp. hordei on barley. Conditions: evaluated 7 days after inoculation. The procedure:
(§1) • Solvent: 49 parts by weight of N,N-dimethylacetamide • Emulsifier: 1 part by weight of alkylaryl polyglycol ether
(§2) To produce a suitable preparation of active compound, 1 part by weight of active compound or active compound combination is mixed with the stated amounts of solvent and emulsifier, and the concentrate is diluted with water to the desired concentration.
(§3) To test for preventive activity, young plants are sprayed with the preparation of active compound or active compound combination at the stated rate of application.
After the spray coating has been dried, the plants are dusted with spores of Blumeria graminis f.sp. hordei.
The plants are placed in the greenhouse at a temperature of approximately 18° C. and a relative atmospheric humidity of approximately 80% to promote the development of mildew pustules.
The test is evaluated 7 days after the inoculation. 0% means an efficacy which corresponds to that of the untreated control, while an efficacy of 100% means that no disease is observed.

Another assay relates to Leptosphaeria nodorum. The experiment in a line: Leptosphaeria nodorum test (wheat) / preventive. The class given is in vivo, Leptosphaeria nodorum on wheat. Conditions: evaluated 8 days after inoculation. The procedure: as §1, §2, §3
After the spray coating has been dried, the plants are sprayed with a spore suspension of Leptosphaeria nodorum. The plants remain for 48 hours in an incubation cabinet at approximately 20° C. and a relative atmospheric humidity of approximately 100%.
The plants are placed in the greenhouse at a temperature of approximately 22° C. and a relative atmospheric humidity of approximately 80%.
The test is evaluated 8 days after the inoculation. 0% means an efficacy which corresponds to that of the untreated control, while an efficacy of 100% means that no disease is observed.

As for `CP(=O)(O)CCC(N)C(=O)O` (stereo not shown) [(B-13.3), glufosinate-ammonium], the “Efficacy in % found” value in assay [1] (5 ppm a.i.) is recorded as 0%.

As to `O=C(O)CNCP(=O)(O)O` [(B-14.1), glyphosate], in assay [1] (5 ppm a.i.), the “Efficacy in % found” value is 11%. In the case of `CCOC(=O)C1=NOC(c2ccccc2)(c2ccccc2)C1` [(D-19), isoxadifen-ethylen], in the assay on Leptosphaeria nodorum (25 ppm a.i.), the “Efficacy in % found” value worked out at 17%. For `CCOC(=O)C1=NN(c2ccc(Cl)cc2Cl)C(C)(C(=O)OCC)C1` [(D-23), mefenpyr-diethyl], the “Efficacy in % found” value in the assay with Leptosphaeria nodorum (25 ppm a.i.) stood at 17%. For `COc1ccccc1C(=O)NS(=O)(=O)c1ccc(C(=O)NC2CC2)cc1` [(D-62), N-{[4-(cyclopropylcarbamoyl)phenyl]-sulfonyl}-2-methoxybenzamide], in the assay with Leptosphaeria nodorum (25 ppm a.i.), the “Efficacy in % found” value was found to be 0%. With `CC(C)c1ccc(Cl)cc1CN(C(=O)c1c(C(F)F)nn(C)c1F)C1CC1` [compound A5, N-(5-chloro-2-isopropylbenzyl)-N-cyclopropyl-3-(difluoromethyl)-5-fluoro-1-methyl-1H-pyrazole-4-carboxamide], the “Efficacy in % found” value in the assay with Leptosphaeria nodorum (31 ppm a.i.) was 50%; in assay [1] (62.5 ppm a.i.), 56%.

The values are drawn from US9801374B2, “Active compound combinations comprising carboxamide derivatives” (BAYER CROPSCIENCE AG, priority 2012, dated 2017).
